Laboratory results taken from the NIST ThermoML archive (doi:10.1021/acs.jced.6b00819).
Numbers after ± are expanded uncertainties.

Test: wn = mass fraction of the nth substance listed
Conditions: 100 kPa, Liquid, Pycnometric method

mass density (313.15 K, w1 = 0.446): 1238 ± 2 kg/m3
mass density (353.15 K, w1 = 0.481): 1242 ± 2 kg/m3
SMILES: N.N.O=S(=O)(O)O [ammonium sulfate] + O
